Assay results from patent US12077503B2, “Substituted cyclic amides and their use as herbicides” (FMC CORPORATION, priority 2015, dated 2024).

Experiments:
Format in all cases: in vivo
[1] = test system: Kochia (Kochia scoparia); experiment: Test A preemergence; settings: for Plant response rating, Kochia: 125 g ai/ha, preemergence, 0 to 100 scale (0 no effect, 100 complete control); for Kochia plant response rating (0 to 100 scale): Preemergence, 500 g ai/ha, 0 is no effect, 100 is complete control
From the text: (§1) Seeds of plant species selected from barnyardgrass (Echinochloa crus-galli), Kochia (Kochia scoparia), ragweed (common ragweed, Ambrosia elatior), ryegrass, Italian (Italian ryegrass, Lolium multiflorum), crabgrass, large (Digitaria sanguinalis), giant foxtail (Setaria faberii), green foxtail (Setaria viridis), morningglory (Ipomoea spp.), pigweed (Amaranthus retroflexus), velvetleaf (Abutilon theophrasti), wheat (Triticum aestivum), and corn (Zea mays) were planted into a blend of loam soil and sand and treated preemergence with a directed soil spray using test chemicals formulated in anon-phytotoxic solvent mixture which included a surfactant.
(§2) At the same time, plants selected from these crop and weed species and also blackgrass (Alopecurus myosuroides), and Galium (catchweed bedstraw, Galium aparine) were planted in pots containing the same blend of loam soil and sand and treated with postemergence applications of test chemicals formulated in the same manner. Plants ranged in height from 2 to 10 cm and were in the one- to two-leaf stage for the postemergence treatment. Treated plants and untreated controls were maintained in a greenhouse for approximately 10 d, after which time all treated plants were compared to untreated controls and visually evaluated for injury. Plant response ratings, summarized in Table A, are based on a 0 to 100 scale where 0 is no effect and 100 is complete control. A dash (-) response means no test result.

[2] = test system: barnyardgrass (Echinochloa crus-galli); experiment: Test A preemergence; settings: for Plant response rating, Barnyardgrass: 125 g ai/ha, preemergence, 0 to 100 scale (0 no effect, 100 complete control); for Barnyardgrass plant response rating (0 to 100 scale): Preemergence, 500 g ai/ha, 0 is no effect, 100 is complete control
From the text: as §1, §2

[3] = test system: giant foxtail (Setaria faberii); experiment: Test A preemergence; settings: for Plant response rating, Foxtail, Giant: 125 g ai/ha, preemergence, 0 to 100 scale (0 no effect, 100 complete control); for Foxtail, Giant plant response rating (0 to 100 scale): Preemergence, 500 g ai/ha, 0 is no effect, 100 is complete control
From the text: as §1, §2

[4] = test system: pigweed (Amaranthus retroflexus); experiment: Test A preemergence; settings: for Plant response rating, Pigweed: 125 g ai/ha, preemergence, 0 to 100 scale (0 no effect, 100 complete control); for Pigweed plant response rating (0 to 100 scale): Preemergence, 500 g ai/ha, 0 is no effect, 100 is complete control
From the text: as §1, §2

[5] = test system: ragweed (common ragweed, Ambrosia elatior); experiment: Test A preemergence; settings: for Plant response rating, Ragweed: 125 g ai/ha, preemergence, 0 to 100 scale (0 no effect, 100 complete control); for Ragweed plant response rating (0 to 100 scale): Preemergence, 500 g ai/ha, 0 is no effect, 100 is complete control
From the text: as §1, §2

[6] = test system: ryegrass, Italian (Italian ryegrass, Lolium multiflorum); experiment: Test A preemergence; settings: for Plant response rating, Ryegrass, Italian: 125 g ai/ha, preemergence, 0 to 100 scale (0 no effect, 100 complete control); for Ryegrass, Italian plant response rating (0 to 100 scale): Preemergence, 500 g ai/ha, 0 is no effect, 100 is complete control
From the text: as §1, §2

[7] = test system: Galium (catchweed bedstraw, Galium aparine); experiment: Test A postemergence
From the text: as §1, §2

[8] = test system: Kochia (Kochia scoparia); experiment: Test A postemergence
From the text: as §1, §2

[9] = test system: barnyardgrass (Echinochloa crus-galli); experiment: Test A postemergence
From the text: as §1, §2

[10] = test system: blackgrass (Alopecurus myosuroides); experiment: Test A postemergence
From the text: as §1, §2

[11] = test system: corn (Zea mays); experiment: Test A postemergence
From the text: as §1, §2

[12] = test system: giant foxtail (Setaria faberii); experiment: Test A postemergence
From the text: as §1, §2

[13] = test system: pigweed (Amaranthus retroflexus); experiment: Test A postemergence
From the text: as §1, §2

[14] = test system: ragweed (common ragweed, Ambrosia elatior); experiment: Test A postemergence
From the text: as §1, §2

[15] = test system: ryegrass, Italian (Italian ryegrass, Lolium multiflorum); experiment: Test A postemergence
From the text: as §1, §2

[16] = test system: wheat (Triticum aestivum); experiment: Test A postemergence
From the text: as §1, §2

[17] = test system: barnyardgrass (Echinochloa crus-galli); experiment: Test B flooded paddy test; settings: Flood, 250 g ai/ha; 0 to 100 scale where 0 is no effect and 100 is complete control; 13 to 15 d
Description: (§3) Plant species in the flooded paddy test selected from rice (Oryra sativa), sedge, umbrella (small-flower umbrella sedge, Cyperus difformis), ducksalad (Heteranthera limosa), and barnyardgrass (Echinochloa crus-galli) were grown to the 2-leaf stage for testing. At time of treatment, test pots were flooded to 3 cm above the soil surface, treated by application of test compounds directly to the paddy water, and then maintained at that water depth for the duration of the test. Treated plants and controls were maintained in a greenhouse for 13 to 15 d, after which time all species were compared to controls and visually evaluated. Plant response ratings, summarized in Table B, are based on a scale of 0 to 100 where 0 is no effect and 100 is complete control. A dash (-) response means no test result.

[18] = test system: ducksalad (Heteranthera limosa); experiment: Test B flooded paddy test; settings: Flood, 250 g ai/ha; 0 to 100 scale where 0 is no effect and 100 is complete control; 13 to 15 d
Description: as §3

[19] = test system: rice (Oryra sativa); experiment: Test B flooded paddy test; settings: Flood, 250 g ai/ha; 0 to 100 scale where 0 is no effect and 100 is complete control; 13 to 15 d
Description: as §3

[20] = test system: sedge, umbrella (small-flower umbrella sedge, Cyperus difformis); experiment: Test B flooded paddy test; settings: Flood, 250 g ai/ha; 0 to 100 scale where 0 is no effect and 100 is complete control; 13 to 15 d
Description: as §3

[21] = 500 g ai/ha, postemergence, 0 to 100 scale, 0 no effect, 100 complete control
[22] = Postemergence, 125 g ai/ha, visual injury, 0 to 100 scale (0 no effect, 100 complete control), approx. 10 d

Cc1ccc(C2CNC(=O)C2C(=O)Nc2ccc(F)c(F)c2F)cc1F (racemic) [Compound 371]
Plant response rating, Kochia [1]: 20
Kochia plant response rating (0 to 100 scale) [1]: 60
Plant response rating, Barnyardgrass [2]: 90
Barnyardgrass plant response rating (0 to 100 scale) [2]: 90
Plant response rating, Foxtail, Giant [3]: 90
Foxtail, Giant plant response rating (0 to 100 scale) [3]: 90
Plant response rating, Pigweed [4]: 0
Pigweed plant response rating (0 to 100 scale) [4]: 20
Plant response rating, Ragweed [5]: 30
Ragweed plant response rating (0 to 100 scale) [5]: 40
Plant response rating, Ryegrass, Italian [6]: 0
Ryegrass, Italian plant response rating (0 to 100 scale) [6]: 20
Plant response rating, Galium [7, 21]: 30
Plant response rating, Galium [7, 22]: 30
Plant response rating, Kochia [8, 21]: 40
Plant response rating, Kochia [8, 22]: 20
Plant response rating, Barnyardgrass [9, 21]: 90
Plant response rating, Barnyardgrass [9, 22]: 80
Plant response rating, Blackgrass [10, 21]: 60
Plant response rating, Blackgrass [10, 22]: 30
Plant response rating, Corn [11, 21]: 60
Plant response rating, Corn [11, 22]: 20
Plant response rating, Foxtail, Giant [12, 21]: 90
Plant response rating, Foxtail, Giant [12, 22]: 50
Plant response rating, Pigweed [13, 21]: 20
Plant response rating, Pigweed [13, 22]: 0
Plant response rating, Ragweed [14, 21]: 30
Plant response rating, Ragweed [14, 22]: 0
Plant response rating, Ryegrass, Italian [15, 21]: 30
Plant response rating, Ryegrass, Italian [15, 22]: 20
Plant response rating, Wheat [16, 21]: 40
Plant response rating, Wheat [16, 22]: 0
Plant response rating, Barnyardgrass [17]: 60
Plant response rating, Ducksalad [18]: 100
Plant response rating, Rice [19]: 20
Plant response rating, Sedge, Umbrella [20]: 0

Cc1cccc(C2CNC(=O)C2C(=O)Nc2cccc(F)c2F)c1 (racemic) [Compound 373]
Plant response rating, Kochia [1]: 0
Kochia plant response rating (0 to 100 scale) [1]: 30
Plant response rating, Barnyardgrass [2]: 90
Barnyardgrass plant response rating (0 to 100 scale) [2]: 90
Plant response rating, Foxtail, Giant [3]: 80
Foxtail, Giant plant response rating (0 to 100 scale) [3]: 90
Plant response rating, Pigweed [4]: 0
Pigweed plant response rating (0 to 100 scale) [4]: 20
Plant response rating, Ragweed [5]: 0
Ragweed plant response rating (0 to 100 scale) [5]: 30
Plant response rating, Ryegrass, Italian [6]: 30
Ryegrass, Italian plant response rating (0 to 100 scale) [6]: 40
Plant response rating, Galium [7, 21]: 30
Plant response rating, Galium [7, 22]: 30
Plant response rating, Kochia [8, 21]: 40
Plant response rating, Kochia [8, 22]: 0
Plant response rating, Barnyardgrass [9, 21]: 80
Plant response rating, Barnyardgrass [9, 22]: 80
Plant response rating, Blackgrass [10, 21]: 40
Plant response rating, Blackgrass [10, 22]: 20
Plant response rating, Corn [11, 21]: 50
Plant response rating, Corn [11, 22]: 20
Plant response rating, Foxtail, Giant [12, 21]: 70
Plant response rating, Foxtail, Giant [12, 22]: 40
Plant response rating, Pigweed [13, 21]: 30
Plant response rating, Pigweed [13, 22]: 20
Plant response rating, Ragweed [14, 21]: 0
Plant response rating, Ragweed [14, 22]: 0
Plant response rating, Ryegrass, Italian [15, 21]: 20
Plant response rating, Ryegrass, Italian [15, 22]: 30
Plant response rating, Wheat [16, 21]: 70
Plant response rating, Wheat [16, 22]: 20
Plant response rating, Barnyardgrass [17]: 60
Plant response rating, Ducksalad [18]: 100
Plant response rating, Rice [19]: 20
Plant response rating, Sedge, Umbrella [20]: 0
